Source: ChEMBL document CHEMBL1152560, “Substituted 2-arylbenzothiazoles as kinase inhibitors: hit-to-lead optimization” (Bioorg Med Chem, 2009)

Experiments:
[1] = target: T1, Ephrin type-B receptor 2 (Homo sapiens) (UniProt P29323); test: Residual activity of EPHB2 at 0.1 uM by microplate scintillation counting
T1 sequence (whole entry): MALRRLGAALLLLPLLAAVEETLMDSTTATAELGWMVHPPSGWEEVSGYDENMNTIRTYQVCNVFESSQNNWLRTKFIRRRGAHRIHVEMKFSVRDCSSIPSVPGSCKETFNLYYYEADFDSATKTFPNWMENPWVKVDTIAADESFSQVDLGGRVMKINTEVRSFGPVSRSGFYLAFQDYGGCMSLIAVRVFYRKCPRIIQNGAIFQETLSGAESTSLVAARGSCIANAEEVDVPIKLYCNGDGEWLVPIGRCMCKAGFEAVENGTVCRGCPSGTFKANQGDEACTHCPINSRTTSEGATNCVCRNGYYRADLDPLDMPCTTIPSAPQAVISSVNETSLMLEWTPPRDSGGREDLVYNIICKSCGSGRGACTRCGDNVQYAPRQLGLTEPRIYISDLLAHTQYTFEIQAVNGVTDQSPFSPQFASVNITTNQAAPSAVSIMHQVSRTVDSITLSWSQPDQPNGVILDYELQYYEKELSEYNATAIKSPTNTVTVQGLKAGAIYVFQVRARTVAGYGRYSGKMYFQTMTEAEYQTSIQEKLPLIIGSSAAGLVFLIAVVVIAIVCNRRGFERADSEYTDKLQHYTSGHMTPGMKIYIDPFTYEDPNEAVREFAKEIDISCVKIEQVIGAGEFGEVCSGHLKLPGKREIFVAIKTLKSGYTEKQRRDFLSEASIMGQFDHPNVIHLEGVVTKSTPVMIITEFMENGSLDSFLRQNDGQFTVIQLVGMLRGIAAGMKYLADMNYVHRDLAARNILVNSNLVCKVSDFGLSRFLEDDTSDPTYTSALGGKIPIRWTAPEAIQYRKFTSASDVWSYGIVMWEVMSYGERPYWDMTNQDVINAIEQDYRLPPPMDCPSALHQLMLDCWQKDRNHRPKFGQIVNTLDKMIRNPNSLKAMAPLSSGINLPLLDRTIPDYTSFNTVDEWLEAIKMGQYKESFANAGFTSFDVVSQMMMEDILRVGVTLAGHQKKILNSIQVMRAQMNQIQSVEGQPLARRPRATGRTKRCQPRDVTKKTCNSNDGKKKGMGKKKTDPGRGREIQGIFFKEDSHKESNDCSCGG

[2] = target: Serine/threonine-protein kinase PAK 5 (Homo sapiens) (UniProt Q9P286); test: Residual activity of PAK7 at 10 uM by microplate scintillation counting
[3] = target: T2, Serine/threonine-protein kinase Chk1 (Homo sapiens) (UniProt O14757); test: Residual activity of CHK1 at 10 uM by microplate scintillation counting
T2 sequence (whole entry): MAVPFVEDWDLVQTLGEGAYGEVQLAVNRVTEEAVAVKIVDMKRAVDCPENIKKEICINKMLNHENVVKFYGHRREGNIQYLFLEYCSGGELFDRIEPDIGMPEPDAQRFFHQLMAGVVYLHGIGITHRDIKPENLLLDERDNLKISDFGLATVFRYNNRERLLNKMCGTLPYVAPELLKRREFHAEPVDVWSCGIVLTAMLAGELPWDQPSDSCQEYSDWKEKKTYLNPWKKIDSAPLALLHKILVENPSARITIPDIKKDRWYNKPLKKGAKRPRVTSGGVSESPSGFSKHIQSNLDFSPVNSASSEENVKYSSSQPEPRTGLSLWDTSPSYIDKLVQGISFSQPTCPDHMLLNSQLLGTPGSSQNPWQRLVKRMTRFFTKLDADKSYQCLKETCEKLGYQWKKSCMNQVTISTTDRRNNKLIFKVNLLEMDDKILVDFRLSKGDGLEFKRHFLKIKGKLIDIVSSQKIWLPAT

[4] = target: T3, Eukaryotic elongation factor 2 kinase (Homo sapiens) (UniProt O00418); test: Residual activity of EEF2K at 1 uM by microplate scintillation counting
T3 sequence (whole entry): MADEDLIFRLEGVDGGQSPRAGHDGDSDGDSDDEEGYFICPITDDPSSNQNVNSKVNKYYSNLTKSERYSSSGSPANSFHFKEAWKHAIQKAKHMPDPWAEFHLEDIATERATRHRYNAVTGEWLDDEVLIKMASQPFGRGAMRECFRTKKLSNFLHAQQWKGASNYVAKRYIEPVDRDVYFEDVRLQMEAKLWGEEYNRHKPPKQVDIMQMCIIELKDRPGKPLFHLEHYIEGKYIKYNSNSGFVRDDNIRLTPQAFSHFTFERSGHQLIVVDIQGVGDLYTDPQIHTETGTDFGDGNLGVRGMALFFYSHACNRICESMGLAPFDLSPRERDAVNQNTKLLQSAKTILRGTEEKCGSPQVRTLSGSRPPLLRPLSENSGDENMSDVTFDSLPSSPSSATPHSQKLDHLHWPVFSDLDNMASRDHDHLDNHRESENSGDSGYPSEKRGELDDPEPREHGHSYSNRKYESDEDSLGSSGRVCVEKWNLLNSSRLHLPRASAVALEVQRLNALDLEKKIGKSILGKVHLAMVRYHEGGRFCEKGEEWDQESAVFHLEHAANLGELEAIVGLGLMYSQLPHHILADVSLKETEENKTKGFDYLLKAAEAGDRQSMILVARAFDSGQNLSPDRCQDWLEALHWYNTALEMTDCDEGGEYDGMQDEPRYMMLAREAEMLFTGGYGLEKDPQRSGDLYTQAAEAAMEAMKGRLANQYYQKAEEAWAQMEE

[5] = target: T4, Serine/threonine-protein kinase Nek3 (Homo sapiens) (UniProt P51956); test: Residual activity of NEK3 at 1 uM by microplate scintillation counting
T4 sequence (whole entry): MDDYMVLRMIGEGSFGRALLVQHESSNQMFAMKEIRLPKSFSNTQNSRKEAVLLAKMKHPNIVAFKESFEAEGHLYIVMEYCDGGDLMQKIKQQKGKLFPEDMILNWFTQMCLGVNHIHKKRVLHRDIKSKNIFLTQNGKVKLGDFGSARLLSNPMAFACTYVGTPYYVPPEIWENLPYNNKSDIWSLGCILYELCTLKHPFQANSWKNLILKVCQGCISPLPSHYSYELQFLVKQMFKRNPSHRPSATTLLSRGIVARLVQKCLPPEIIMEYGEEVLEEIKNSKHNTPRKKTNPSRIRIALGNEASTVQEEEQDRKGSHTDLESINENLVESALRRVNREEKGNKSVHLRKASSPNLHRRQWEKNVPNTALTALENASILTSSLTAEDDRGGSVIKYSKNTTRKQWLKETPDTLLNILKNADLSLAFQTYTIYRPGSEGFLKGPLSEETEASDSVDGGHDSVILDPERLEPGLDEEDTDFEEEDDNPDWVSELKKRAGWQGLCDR

Sequence of Serine/threonine-protein kinase PAK 5 (Homo sapiens) (Q9P286 whole entry, looked up): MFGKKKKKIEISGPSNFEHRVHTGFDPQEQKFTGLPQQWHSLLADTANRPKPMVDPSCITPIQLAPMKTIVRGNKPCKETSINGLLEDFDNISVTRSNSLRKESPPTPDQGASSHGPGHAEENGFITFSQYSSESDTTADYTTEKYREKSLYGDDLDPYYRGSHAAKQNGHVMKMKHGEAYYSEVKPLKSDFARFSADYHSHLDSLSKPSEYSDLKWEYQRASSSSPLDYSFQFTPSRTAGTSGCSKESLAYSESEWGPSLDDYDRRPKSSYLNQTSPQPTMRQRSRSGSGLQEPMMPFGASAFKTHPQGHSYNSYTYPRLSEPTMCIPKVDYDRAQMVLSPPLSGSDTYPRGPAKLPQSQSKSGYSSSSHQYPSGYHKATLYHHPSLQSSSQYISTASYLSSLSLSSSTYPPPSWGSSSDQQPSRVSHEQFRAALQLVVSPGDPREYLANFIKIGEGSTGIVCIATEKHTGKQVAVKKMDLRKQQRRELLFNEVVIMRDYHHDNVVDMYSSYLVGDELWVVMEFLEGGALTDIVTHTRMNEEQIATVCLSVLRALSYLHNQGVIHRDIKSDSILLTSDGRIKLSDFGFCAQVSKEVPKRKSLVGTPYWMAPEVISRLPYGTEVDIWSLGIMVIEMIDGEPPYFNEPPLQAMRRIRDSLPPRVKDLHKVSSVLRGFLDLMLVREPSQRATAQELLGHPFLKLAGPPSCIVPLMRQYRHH

Row | residual activity [1] | residual activity [2] | residual activity [3] | residual activity [4] | residual activity [5] | SMILES
1 | 97% | 84% | 101% | 86% | 110% | COc1cc2c(Oc3ccc(-c4nc5ccccc5s4)cc3)ncnc2cc1OCCCN1CCCC1
2 | 99% | 45% | 131% | 82% | 102% | COc1cc2c(Oc3ccc(-c4nc5ccccc5s4)cc3)ncnc2cc1OCCCN1CCN(C)CC1
3 | 98% | 49% | 142% | 90% | 103% | COc1cc2c(Oc3ccc(-c4nc5ccccc5s4)cc3F)ncnc2cc1OCCCN1CCN(C)CC1
